Our source for the MIC and IC50 values is patent US10947205B2, “Oxazolidinone compounds and methods of use thereof as antibacterial agents” (priority 2015, dated 2021).

Assay [1] concerns Mycobacterium tuberculosis (Mtb). Briefly: microbe, parasite or virus in culture. It counts as cell-based, Mycobacterium tuberculosis H37Rv (Mtb-GFP). To be noted: 168 h.
Assay [2] concerns Staphylococcus aureus (methicillin resistant, MB5393, COL). Briefly: microbe, parasite or virus in culture. To be noted: MRSA, 22 h, read-out: MRSA COL MITC95 μM. It counts as cell-based.
Assay [3] has as its system mitochondrial protein synthesis in HepG2 cells (COX-I / SDH-A). The assay can be described thus: Mitochondrial protein synthesis assay. It counts as cell-based. To be noted: Homo sapiens, 96 h; HepG2 cells, 4 days, ratio of COX-1 to SDH-A levels; read-out: MPS IC50_μM. The procedure:
(§1) Inhibition of mitochondrial protein synthesis was assessed in HepG2 cells by comparing the levels of two subunits of oxidative phosphorylation enzyme complexes, subunit I of Complex IV (COX-I) and the 70 kDa subunit of Complex II (SDH-A). COX-I is mitochondrial DNA encoded and SDH-A is nuclear DNA encoded. HepG2 cells were seeded in 96-well collagen coated plates at 8,000 cells per well and exposed to 2-fold serial dilutions of compounds from 100 LM to 6.25 μM. Microtiter plates were incubated for approximately 5 replication cycles (4 days) prior to assessment of protein levels using a kit as described by the manufacturer (ab 110217 MitoBiogenesis In Cell ELISA Kit, Abcam, Cambridge, Mass.). Inhibition of mitochondrial protein synthesis was expressed as a ratio of COX-1 to SDH-A levels.
as §1, with “μM” for “LM”

Setting [4] is: pH 6.8, read-out: Mtb Cho MITC95_μM.
Where [5] appears, read: pH 6.8, read-out: Mtb Glu MITC95_μM.

Structures are written as SMILES. ≈ marks a conversion by molar mass, not a printed value. Read-outs that look alike come from different tables or passages of the source.

With `CS(=N)(=O)c1ccc(-c2ccc(N3C[C@H](Cn4ccnn4)OC3=O)cc2F)cc1` (stereo partly drawn) [Example 64, (5R)-5-((1H-1,2,3-triazol-1-yl)methyl)-3-(2-fluoro-4′-(S-methylsulfonimidoyl)-[1,1′-biphenyl]-4-yl)oxazolidin-2-one], the MIC in assay [1] (setting [4]) stood at 0.09 µM (≈ 0.0374 µg/mL); in assay [1] (setting [5]), 0.09 µM (≈ 0.0374 µg/mL); in assay [2], 0.39 µM (≈ 0.162 µg/mL). Also, the IC50 in assay [3] was over 20 µM.
For the compound `CSc1ccc(-c2ccc(N3C[C@H](Cn4cnnn4)OC3=O)cc2F)cc1` [Example 44, (5R)-3-[2-fluoro-4′-(methylsulfanyl)biphenyl-4-yl]-5-(1H-tetrazol-1-ylmethyl)-1,3-oxazolidin-2-one], the MIC was found to be 0.04 µM (≈ 0.0154 µg/mL) in assay [1] (setting [4]), 0.19 µM (≈ 0.0732 µg/mL) in assay [1] (setting [5]) and 200 µM (≈ 77.1 µg/mL) in assay [2]. The IC50 in assay [3] is over 20 µM.
The matching figures for `NC[C@H]1CN(c2ccc(-c3ccc(Cl)nc3)c(F)c2)C(=O)O1` [Example 22, (5S)-5-(aminomethyl)-3-[4-(6-chloropyridin-3-yl)-3-fluorophenyl]-1,3-oxazolidin-2-one]: 0.19 µM (≈ 0.0611 µg/mL), 0.04 µM (≈ 0.0129 µg/mL), 100 µM (≈ 32.2 µg/mL) and over 20 µM.
On to `NC[C@H]1CN(c2ccc(-c3cccc(N4CCS(=O)(=O)CC4)c3)c(F)c2)C(=O)O1` [Example 21, (5S)-5-(aminomethyl)-3-[3′-(1,1-dioxidothiomorpholin-4-yl)-2-fluorobiphenyl-4-yl]-1,3-oxazolidin-2-one], for which the MIC in assay [1] (setting [4]) is 1.5 µM (≈ 0.629 µg/mL); in assay [1] (setting [5]), 0.39 µM (≈ 0.164 µg/mL); in assay [2], 200 µM (≈ 83.9 µg/mL). Further, the IC50 in assay [3] was found to be 25 µM.
The matching figures for `CSc1ncc(-c2ccc(N3C[C@H](CN)OC3=O)cc2F)cn1` [Example 32, (5S)-5-(aminomethyl)-3-{3-fluoro-4-[2-(methylsulfanyl)pyrimidin-5-yl]phenyl}-1,3-oxazolidin-2-one]: 0.29 µM (≈ 0.097 µg/mL), 0.24 µM (≈ 0.0803 µg/mL), 200 µM (≈ 66.9 µg/mL) and over 20 µM.
For `NC[C@H]1CN(c2cc(F)c(N3CCOCC3)c(F)c2)C(=O)O1` [Example 59, (S)-5-(aminomethyl)-3-(3,5-difluoro-4-morpholinophenyl)oxazolidin-2-one] the same measures were 0.39 µM (≈ 0.122 µg/mL), 0.09 µM (≈ 0.0282 µg/mL), 200 µM (≈ 62.7 µg/mL) and over 20 µM.
For `CC(C)(O)c1ncc(-c2ccc(N3C[C@H](CN)OC3=O)cc2F)s1` [Example 23, (5S)-5-(aminomethyl)-3-{3-fluoro-4-[2-(1-hydroxy-1-methylethyl)-1,3-thiazol-5-yl]phenyl}-1,3-oxazolidin-2-one] the same measures were 0.19 µM (≈ 0.0668 µg/mL), 0.19 µM (≈ 0.0668 µg/mL), 200 µM (≈ 70.3 µg/mL) and over 20 µM.
`O=C1O[C@@H](Cn2ccnn2)CN1c1ccc(-c2ccc(N3CCNCC3)nc2)c(F)c1` [Example 54, (R)-5-((1H-1,2,3-triazol-1-yl)methyl)-3-(3-fluoro-4-(6-(piperazin-1-yl)pyridin-3-yl)phenyl)oxazolidin-2-one]: the figures for the MIC in assay [1] (setting [4]), in assay [1] (setting [5]) and in assay [2] were 0.215 µM (≈ 0.091 µg/mL), 0.24 µM (≈ 0.102 µg/mL) and 2.34 µM (≈ 0.991 µg/mL), respectively. For the same compound, the IC50 in assay [3] was over 20 µM.
For `CS(=O)(=O)Nc1ccc(-c2ccc(N3C[C@H](CN)OC3=O)cc2F)cc1` [Example 17, N-{4′-[(5S)-5-(aminomethyl)-2-oxo-1,3-oxazolidin-3-yl]-2′-fluorobiphenyl-4-yl}methanesulfonamide] the same measures were 0.29 µM (≈ 0.11 µg/mL), 0.09 µM (≈ 0.0341 µg/mL), 200 µM (≈ 75.9 µg/mL) and over 20 µM.
For `NC[C@H]1CN(c2ccc(-c3cncnc3)c(F)c2)C(=O)O1` [Example 25, (5S)-5-(aminomethyl)-3-(3-fluoro-4-pyrimidin-5-ylphenyl)-1,3-oxazolidin-2-one] the same measures were 0.19 µM (≈ 0.0548 µg/mL), 0.04 µM (≈ 0.0115 µg/mL), 200 µM (≈ 57.7 µg/mL) and over 20 µM.
